Key:
[1] = test system: MTX Resistant DU-145 Cells; assay: In vitro cell growth inhibition test (MTT assay, cell viability); format: cell-based, human; details: 72 h incubation, DU-145-MTX cells
Method: (§1) A methotrexate resistant cell line. DU 145(MTX) was developed from parental DU 145 cells by exposure to increasing concentrations (starting at 0.1 μM) of methotrexate over a period of 6 months. DU 145(MTX) was at least 250-fold less sensitive to methotrexate than parental cells.
The human prostate cancer cell lines DU-145 (ATCC) was cultured in MEM media with glutamine and supplemented with 10% fetal bovine serum, penicillin (100 U/mL) and streptomycin ([…]) in air enriched with 5% CO2 at 37° C.
Cell viability was determined using the MTT assay. Briefly, cells were seeded in 96-well plates at a density of 3000 cells per well in 0.1 mL MEM media supplemented with 10% fetal bovine serum, and test compounds were concomitantly added in a concentration range of 0.001-1000 μM. Dilutions were made using the culture medium from 1 mM stock solutions of the drugs in anhydrous DMSO. Controls were treated with an equivalent amount of solvent, diluted as above, to assess the absence of toxicity due to the solvent. After 72 h of incubation, 15 μL of 5 mg mL^−1 MTT dye (3-[4,5-dimethylthiazol-2-yl]-2,5-diphenyltetrazolium bromide, sigma) was added for 4 h at 37° C. Media was removed and the monolayer suspended in 0.15 mL of DMSO, after which the absorbance at 570 nm was measured using a microplate reader. The control value corresponding to untreated cells was defined as 100% and the viability of treated samples was expressed as a percentage of the control.

DU 145(MTX) cells = assay: Sensitivity of methotrexate resistant cell line DU 145(MTX) versus parental DU 145 cells; format: cell-based, human
Method: as §1

CN(Cc1cnc2nc(N)nc(N)c2n1)c1ccc(C(=O)N[C@@H](CCC(=O)O)C(=O)O)cc1 [Methotrexate (MTX), Methotrexate, reference compound]
DU-145-MTX (% cell survival) ([1]; 100 nM test compound): 82%
DU-145-MTX (% cell survival) ([1]; 1 μM test compound): 84%
DU-145-MTX (% cell survival) ([1]; 10 μM test compound): 83%
fold less sensitive to methotrexate than parental cells (DU 145(MTX) cells): at least 250 fold

Reference: patent US9919055B2, “Sugar-linker-drug conjugates” (Arizona Board of Regents on Behalf of Arizona State …, priority 2013, dated 2018)
